Measured values reported in ChEMBL document CHEMBL4251746, “Design of Conformationally Constrained Acyl Sulfonamide Isosteres: Identification of N-([1,2,4]Triazolo[4,3- a]pyridin-3-yl)methane-sulfonamides as Potent and Selective hNaV1.7 Inhibitors for the Treatment of Pain” (J Med Chem, 2018).
Values after ≈ are worked out from the molar mass of the structure shown.

Assays:
[1] = Dissociation constant, pKa of the compound by UV-metric method; format: physicochemical
[2] = octanol/water, pH 7.4
physchem [3] = conditions: 1-octanol/PBS, pH 7.4
in vivo [4] = conditions: Sprague-Dawley, rat, iv, 1 mg/kg
in vitro [5] = conditions: dog, MDCK-MDR1
in vivo [6] = conditions: FVB hSCN9a Tg, mouse, po, 30 mg/kg
in vivo [7] = conditions: brain/plasma
in vivo [8] = conditions: FVB hSCN9a Tg, mouse, plasma, po, 30 mg/kg
physchem [9] = conditions: PBS, pH 7.4
in vivo [10] = conditions: beagle, dog, iv, 0.5 mg/kg
in vitro [11] = conditions: dog, MDCK-MDR1; remark: listed apart in the source
in vivo [12] = conditions: CF1, mouse, iv, 0.5 mg/kg

CS(=O)(=O)NC(=O)c1cc(Cl)c(OCC23CC4CC(CC(C4)C2)C3)cc1F
pKa [1]: 3.8 | logD [2]: 2.4

CS(=O)(=O)Nc1noc2cc(COc3ccc(Cl)c(Cl)c3)c(Cl)cc12
logD (physchem [3]): 2.5

CS(=O)(=O)Nc1noc2cc(OCc3ccc(Cl)c(Cl)c3)c(Cl)cc12
logD (physchem [3]): 1.8

CS(=O)(=O)Nc1noc2cc(COc3ccc(Cl)c(Cl)c3)c(C3CC3)cc12
logD (physchem [3]): 2.4

CC(C)c1cn2c(NS(C)(=O)=O)nnc2cc1OCC12CC3CC(CC(C3)C1)C2
logD (physchem [3]): 2.9

CS(=O)(=O)Nc1nnc2cc(OCC34CC5CC(CC(C5)C3)C4)c(C3CC3)cn12
Vd (in vivo [4]): 0.6 L/kg | Papp A→B at 10 µM (in vitro [5]): 32 nm/s | Tmax at 3 h (in vivo [6]): 2 h | Kp (in vivo [7]): > 0.17 | concentration at 3 h (in vivo [8]): 46.2 µM | solubility kinetic at 24 h, 200 µM (physchem [9]): 32 µM (≈ 13.3 µg/mL) | logD (physchem [3]): 3.5 | Vd (in vivo [10]): 0.4 L/kg | Papp B→A at 10 µM (in vitro [11]): 32 nm/s

CS(=O)(=O)Nc1nnc2cc(OCC34CC5CC(CC(C5)C3)C4)c(Br)cn12
logD (physchem [3]): 2.8

O=S(=O)(Nc1nnc2cc(OCC34CC5CC(CC(C5)C3)C4)c(C3CC3)cn12)C(F)F
logD (physchem [3]): 3.1

CS(=O)(=O)Nc1nnc2cc(OCC34CC5CC(CC(C5)C3)C4)c(Cl)cn12
pKa [1]: 5.6 | logD (physchem [3]): 2.7

CS(=O)(=O)Nc1nnc2cc(COc3cc(Cl)cc(Cl)c3)c(C3CC3)cn12
Vd (in vivo [4]): 0.6 L/kg | Papp A→B at 10 µM (in vitro [5]): 40 nm/s | Kp (in vivo [7]): < 0.004 | concentration at 3 h (in vivo [8]): 18.8 µM | solubility kinetic at 24 h, 200 µM (physchem [9]): 17 µM (≈ 7.26 µg/mL) | logD (physchem [3]): 1.9 | Vd (in vivo [12]): 0.2 L/kg | Papp B→A at 10 µM (in vitro [11]): 150 nm/s

O=S(=O)(Nc1nnc2cc(OCC34CC5CC(CC(C5)C3)C4)c(C3CC3)cn12)C1CCC1
logD (physchem [3]): 4.7

CCc1cn2c(NS(C)(=O)=O)nnc2cc1OCC12CC3CC(CC(C3)C1)C2
logD (physchem [3]): 3.1

CS(=O)(=O)Nc1nnc2cc(OCC34CC5CC(CC(C5)C3)C4)c(C3CCC3)cn12
logD (physchem [3]): 3.9

CS(=O)(=O)Nc1nnc2cc(OCC3C4CC5CC(C4)CC3C5)c(C3CC3)cn12 (configuration not stated)
logD (physchem [3]): 2.3

CS(=O)(=O)Nc1nnc2cc(OCC34CC5CC(CC(C5)C3)C4)ccn12
logD (physchem [3]): 2.2

CNS(=O)(=O)Nc1nnc2cc(OCCC34CC5CC(CC(C5)C3)C4)c(C3CC3)cn12
logD (physchem [3]): 3.7

CS(=O)(=O)Nc1noc2cc(OCC34CC5CC(CC(C5)C3)C4)c(Cl)cc12
pKa [1]: 4.7 | logD (physchem [3]): 3.5

CS(=O)(=O)Nc1nnc2cc(COc3ccc(Cl)c(Cl)c3)c(C3CC3)cn12
logD (physchem [3]): 1.5

CNS(=O)(=O)Nc1nnc2cc(OCC34CC5CC(CC(C5)C3)C4)c(C3CC3)cn12
logD (physchem [3]): 3.2
